Data as given in US20040023295A1, “Methods and systems for analyzing complex biological systems” (priority 2001, published 2004).
“Also recorded” adds a separate entry of the source.

Key:
[1] = system: Arabidopsis thaliana plants; assay: Phenotypic analysis of herbicide-treated Arabidopsis plants (SOA1); format: in vivo; conditions: for Dev. leafWidth: numeric values standardized to the average response for the mock treated tissues; for Dev. leafCurling / Dev. leafTwisting / Dev. matureLeafAnthocyanins / Dev. matureLeafChlorosis / Dev. matureLeafNecrosis / Dev. newLeafAnthocyanins / Dev. newLeafChlorosis / Dev. newLeafNecrosis / Dev. pointedLeaves: standardized to mock treated; for Symptom Class: three-week-old Arabidopsis sprayed with herbicide, phenotype classes of FIG. 12; for Dev. tMic: time for full range of symptoms at MIC, coded score; for characteristic symptoms (morphological phenotype): herbicide-treated Arabidopsis
Arabidopsis thaliana [2] = assay: Phenotypic profiling of Arabidopsis sprayed with unknown and commercial herbicides (MOA1); format: in vivo; conditions: Ward's method
Arabidopsis thaliana [3] = assay: Gene expression profiling of sprayed Arabidopsis (MOA1); format: in vivo; conditions: for No. of Lethal Genes Altered: regulated genes identified as essential genes in internal database
Arabidopsis thaliana [4] = assay: Biochemical (metabolite) profiling by LC-MS and GC-MS of sprayed Arabidopsis (MOA1); conditions: for stress related (commonly regulated) metabolites: within one hour after spraying
[5] = system: Saccharomyces cerevisiae wild type strain BY4743; assay: Yeast azole drug experiment AF1: metabolite analysis (GC-MS, LC-MS); format: cell-based
Magnaporthe grisea = format: cell-based
[6] = 1 hr, p < 0.5, arrays containing 22,000 Arabidopsis genes
[7] = early time points (20 min, 1 hour)

O=C(O)COc1ccc(Cl)cc1Cl [2,4-D]
Dev. leafWidth [1]: −1
Dev. leafCurling [1]: 1
Dev. leafTwisting [1]: 2
Dev. matureLeafAnthocyanins [1]: 1
Dev. matureLeafChlorosis [1]: 2
Dev. matureLeafNecrosis [1]: 0
Dev. newLeafAnthocyanins [1]: 0
Dev. newLeafChlorosis [1]: 1
Dev. newLeafNecrosis [1]: 0
Dev. pointedLeaves [1]: 0
Symptom Class [1]: 5
Dev. tMic [1]: 2

O=C(O)c1cc(Oc2ccc(C(F)(F)F)cc2Cl)ccc1[N+](=O)[O-] [Acifluorfen]
characteristic symptoms (morphological phenotype) [1]: Necrotic leaf flecks

Nc1nc[nH]n1 [Amitrole]
phenotype / hierarchical clustering of the eleven phenotypic characteristics (Arabidopsis thaliana [2]): exhibited chlorosis and not true bleaching
characteristic symptoms (morphological phenotype) [1]: leaf bleaching and leaf enlargement

COC(=O)NS(=O)(=O)c1ccc(N)cc1 [Asulam]
No. of Lethal Genes Altered (Arabidopsis thaliana [3]): 5

CCNc1nc(Cl)nc(NC(C)C)n1 [Atrazine]
characteristic symptoms (morphological phenotype) [1]: rapid and widespread leaf necrosis

CC(C)N1C(=O)c2ccccc2NS1(=O)=O [Bentazon]
characteristic symptoms (morphological phenotype) [1]: rapid and widespread leaf necrosis

COC(=O)c1cc(Oc2ccc(Cl)cc2Cl)ccc1[N+](=O)[O-] [Bifenox]
characteristic symptoms (morphological phenotype) [1]: Necrotic leaf flecks

CCSC(=O)N(CC(C)C)CC(C)C [Butylate]
phenotype / hierarchical clustering of the eleven phenotypic characteristics (Arabidopsis thaliana [2]): neither showed a strong herbicidal phenotype
stress related (commonly regulated) metabolites (Arabidopsis thaliana [4]): neither butylate nor chlorpropham treatment resulted in many changes

COc1nc(C)nc(NC(=O)NS(=O)(=O)c2ccccc2Cl)n1 [Chlorsulfuron]
No. of Lethal Genes Altered (Arabidopsis thaliana [3]): 8
characteristic symptoms (morphological phenotype) [1]: anthocyanin accumulation in the older leaves accompanied by chlorosis of the newly emerging leaves

c1cc[n+]2c(c1)-c1cccc[n+]1CC2 [Diquat]
characteristic symptoms (morphological phenotype) [1]: rapid and widespread leaf necrosis
Dev. leafWidth [1]: −2
Dev. leafCurling [1]: 2
Dev. leafTwisting [1]: 0
Dev. matureLeafAnthocyanins [1]: 0
Dev. matureLeafChlorosis [1]: 1
Dev. matureLeafNecrosis [1]: 4
Dev. newLeafAnthocyanins [1]: 0
Dev. newLeafChlorosis [1]: 1
Dev. newLeafNecrosis [1]: 4
Dev. pointedLeaves [1]: 1
Symptom Class [1]: 7
Dev. tMic [1]: 2

CN(C)C(=O)Nc1ccc(Cl)c(Cl)c1 [Diuron]
characteristic symptoms (morphological phenotype) [1]: rapid and widespread leaf necrosis
Dev. leafWidth [1]: −2
Dev. leafCurling [1]: 1
Dev. leafTwisting [1]: 0
Dev. matureLeafAnthocyanins [1]: 0
Dev. matureLeafChlorosis [1]: 2
Dev. matureLeafNecrosis [1]: 4
Dev. newLeafAnthocyanins [1]: 0
Dev. newLeafChlorosis [1]: 2
Dev. newLeafNecrosis [1]: 4
Dev. pointedLeaves [1]: 1
Symptom Class [1]: 7
Dev. tMic [1]: 1

OC(Cn1cncn1)(Cn1cncn1)c1ccc(F)cc1F [Fluconazole]
Fold Change campesterol ([5]; GC): 0
Fold Change desmosterol ([5]; GC): 0
Fold Change octadecanoic acid ([5]; GC): 0.082
Fold Change 4-methylcatechol ([5]; nLC): 0
Fold Change 5hydroxyL-tryptophan ([5]; nLC): 0
Fold Change 6-benzylaminopurine ([5]; nLC): 0
Fold Change NacetylD-glucosamine ([5]; nLC): 0
Fold Change NacetylL-ornithine ([5]; nLC): 0
Fold Change abscisic acid ([5]; nLC): 0
Fold Change adenine ([5]; nLC): 0
Fold Change adenosine ([5]; nLC): 0
Fold Change anthranilic acid ([5]; nLC): 0
Fold Change argininosuccinate ([5]; nLC): 0
Fold Change benzoic acid ([5]; nLC): 0
Fold Change catechol ([5]; nLC): 0
Fold Change cinnamic acid ([5]; nLC): 0
Fold Change citricanoic/itaconi ([5]; nLC): 0
Fold Change citrulline ([5]; nLC): 0
Fold Change coumaric acid ([5]; nLC): 0
Fold Change cytosine ([5]; nLC): 0
Fold Change diaminopimelic acid ([5]; nLC): 0
Fold Change dihydrofolic acid ([5]; nLC): 0
Fold Change estrone ([5]; nLC): 0
Fold Change farnesol ([5]; nLC): 0
Fold Change folic acid ([5]; nLC): 0
Fold Change gibberellic ([5]; nLC): 0
Fold Change guanine ([5]; nLC): 0
Fold Change histidine ([5]; nLC): 0
Fold Change homogentisic/uric ([5]; nLC): 0
Fold Change hydrocortisone ([5]; nLC): 0
Fold Change indole3-pyruvic acid ([5]; nLC): 0
Fold Change jasmonic acid ([5]; nLC): 0
Fold Change kinetin ([5]; nLC): 0
Fold Change luteolin ([5]; nLC): 0
Fold Change malonic acid ([5]; nLC): 0
Fold Change methionine ([5]; nLC): 0
Fold Change orotic acid ([5]; nLC): 0
Fold Change phenylpyruvic acid ([5]; nLC): 0
Fold Change phosphoenolpyruvate ([5]; nLC): 0
Fold Change pinitol ([5]; nLC): 0
Fold Change porphobilinogen ([5]; nLC): 0
Fold Change retinoic acid ([5]; nLC): 0
Fold Change salicylic/HObenzoic ([5]; nLC): 0
Fold Change shikimic acid ([5]; nLC): 0
Fold Change sinapinic acid ([5]; nLC): 0
Fold Change thymine ([5]; nLC): 0
Fold Change urocanic acid ([5]; nLC): 0
Fold Change xanthosine-DiH2O ([5]; nLC): 0
Fold Change zeatin ([5]; nLC): 0
Fold Change 4-aminobenzoic acid ([5]; pLC): 0
Fold Change 4-methylcatechol ([5]; pLC): 0
Fold Change 5hydroxyL-tryptophan ([5]; pLC): 0
Fold Change 6benzylaminopurine ([5]; pLC): 0
Fold Change NacetylD-glucosamine ([5]; pLC): 0
Fold Change NacetylL-glutamate ([5]; pLC): 0
Fold Change abscisic acid ([5]; pLC): 0
Fold Change adenosine ([5]; pLC): 0
Fold Change allantoic acid ([5]; pLC): 0
Fold Change anthranilic acid ([5]; pLC): 0
Fold Change argininosuccinate ([5]; pLC): 0
Fold Change biotin ([5]; pLC): 0
Fold Change caffeine ([5]; pLC): 0
Fold Change citric acid TME ([5]; pLC): 0
Fold Change cytidine ([5]; pLC): 0
Fold Change cytosine ([5]; pLC): 0
Fold Change diaminopimelic acid ([5]; pLC): 0
Fold Change dihydrofolic acid ([5]; pLC): 0
Fold Change dipicolinic acid ([5]; pLC): 0
Fold Change folic acid ([5]; pLC): 0
Fold Change glucosamine ([5]; pLC): 0
Fold Change glucosamine6PO4 ([5]; pLC): 0
Fold Change histidine ([5]; pLC): 0
Fold Change hydrocortisone ([5]; pLC): 0
Fold Change itaconic acid dimes ([5]; pLC): 0
Fold Change kinetin ([5]; pLC): 0
Fold Change luteolin ([5]; pLC): 0
Fold Change niacinamide ([5]; pLC): 0
Fold Change nopaline ([5]; pLC): 0
Fold Change phosphoenolpyruvate ([5]; pLC): 0
Fold Change progesterone ([5]; pLC): 0
Fold Change riboflavin ([5]; pLC): 0
Fold Change sugar-phosphate ([5]; pLC): 0
Fold Change thiamine ([5]; pLC): 0
Fold Change thymine ([5]; pLC): 0
Fold Change tryptophan ([5]; pLC): 0
Fold Change uric acid ([5]; pLC): 0
Fold Change urocanic acid ([5]; pLC): 0
Fold Change xanthosine (diH2O) ([5]; pLC): 0
Fold Change zeatin ([5]; pLC): 0

CP(=O)(O)CCC(N)C(=O)O (stereo not shown) [Glufosinate]
Regulated Genes: Down (Arabidopsis thaliana [3]; [6]): 54
No. of Lethal Genes Altered (Arabidopsis thaliana [3]): 10
stress related (commonly regulated) metabolites (Arabidopsis thaliana [4]): Only a few, if any
characteristic symptoms (morphological phenotype) [1]: Chlorosis and leaf curling
Dev. leafWidth [1]: −2
Dev. leafCurling [1]: 2
Dev. leafTwisting [1]: 1
Dev. matureLeafAnthocyanins [1]: 0
Dev. matureLeafChlorosis [1]: 3
Dev. matureLeafNecrosis [1]: 0
Dev. newLeafAnthocyanins [1]: 0
Dev. newLeafChlorosis [1]: 3
Dev. newLeafNecrosis [1]: 0
Dev. pointedLeaves [1]: 1
Symptom Class [1]: 3
Dev. tMic [1]: 1

O=C(O)CNCP(=O)(O)O [Glyphosate]
growth of M. grisea with ammonium or glutamine as nitrogen source (Magnaporthe grisea; 250 μg/ml): Little growth defect
growth of M. grisea with nitrate or glutamate as nitrogen source (Magnaporthe grisea; 250 μg/ml): inhibited growth
growth of M. grisea with nitrite as the sole nitrogen source (Magnaporthe grisea; 250 μg/ml): inhibited growth
growth results for Tiers 3 and 4 as compared to Unknown 4 (Magnaporthe grisea; 250 μg/ml): nearly identical
growth inhibition of M. grisea and its remediation (Magnaporthe grisea; 1.0 mg/ml): remediated by inclusion of aromatic amino acids
tyrosine level relative to the control (Arabidopsis thaliana [4]; [7]): decreased relative to the control
characteristic symptoms (morphological phenotype) [1]: anthocyanin accumulation in the older leaves accompanied by chlorosis of the newly emerging leaves
Dev. leafWidth [1]: 0
Dev. leafCurling [1]: 0
Dev. leafTwisting [1]: 0
Dev. matureLeafAnthocyanins [1]: 3
Dev. matureLeafChlorosis [1]: 1
Dev. matureLeafNecrosis [1]: 3
Dev. newLeafAnthocyanins [1]: 1
Dev. newLeafChlorosis [1]: 2
Dev. newLeafNecrosis [1]: 0
Dev. pointedLeaves [1]: 1
Symptom Class [1]: 4
Dev. tMic [1]: 2

CC(C)C1(C)N=C(c2ncccc2C(=O)O)NC1=O (stereo not shown) [Imazapyr]
stress related (commonly regulated) metabolites (Arabidopsis thaliana [4]): Only a few, if any
characteristic symptoms (morphological phenotype) [1]: anthocyanin accumulation in the older leaves accompanied by chlorosis of the newly emerging leaves

CCc1cnc(C2=NC(C)(C(C)C)C(=O)N2)c(C(=O)O)c1 (stereo not shown) [Imazethapyr]
characteristic symptoms (morphological phenotype) [1]: anthocyanin accumulation in the older leaves accompanied by chlorosis of the newly emerging leaves

CS(=O)(=O)c1cc(C(F)(F)F)ccc1C(=O)c1cnoc1C1CC1 [Isoxaflutole]
alterations in the expression of genes involved in the homogentisate biosynthetic pathway (Arabidopsis thaliana [3]; MOA1, 1 hr): not observed
No. of Lethal Genes Altered (Arabidopsis thaliana [3]): 15
Alpha-tocopherol level relative to the control (Arabidopsis thaliana [4]; early time points): not significantly changed
phenylalanine level relative to the control (Arabidopsis thaliana [4]; [7]): up-regulated; also recorded: began to accumulate relative to the control
tyrosine level relative to the control (Arabidopsis thaliana [4]; [7]): up-regulated; also recorded: began to accumulate relative to the control

CSc1nnc(C(C)(C)C)c(=O)n1N [Metribuzin]
characteristic symptoms (morphological phenotype) [1]: rapid and widespread leaf necrosis

O=C(O)c1ccccc1C(=O)Nc1cccc2ccccc12 [Naptalam]
Regulated Genes: Down (Arabidopsis thaliana [3]; [6]): 47
Regulated Genes: Up (Arabidopsis thaliana [3]; [6]): 50
No. of Lethal Genes Altered (Arabidopsis thaliana [3]): 3

CNc1cnn(-c2cccc(C(F)(F)F)c2)c(=O)c1Cl [Norflurazon]
stress related (commonly regulated) metabolites (Arabidopsis thaliana [4]): Only a few, if any

C[n+]1ccc(-c2cc[n+](C)cc2)cc1 [Paraquat]
characteristic symptoms (morphological phenotype) [1]: rapid and widespread leaf necrosis
Dev. leafWidth [1]: −1
Dev. leafCurling [1]: 2
Dev. leafTwisting [1]: 0
Dev. matureLeafAnthocyanins [1]: 0
Dev. matureLeafChlorosis [1]: 1
Dev. matureLeafNecrosis [1]: 4
Dev. newLeafAnthocyanins [1]: 0
Dev. newLeafChlorosis [1]: 1
Dev. newLeafNecrosis [1]: 4
Dev. pointedLeaves [1]: 1
Dev. tMic [1]: 2

CC[C@@H]([C@H](C)O)n1ncn(-c2ccc(N3CCN(c4ccc(OC[C@@H]5CO[C@@](Cn6cncn6)(c6ccc(F)cc6F)C5)cc4)CC3)cc2)c1=O [Posaconazole]
Fold Change: 4-aminobenzoic acid ([5]; platform nLC): 0
